Laboratory results taken from paper PMC11434080, “Acetylation of Oleanolic Acid Dimers as a Method of Synthesis of Powerful Cytotoxic Agents” (Molecules, 2024).
“Also recorded” adds a separate entry of the source. Where two headings read alike, the source gives them in different places.

Tests used:
U-87 = test: MTT assay, U-87; assay type: cell-based, human; details: for U-87 SI: Selectivity Index = IC50 HDF / IC50 U-87; for IC50: U-87 MG, MTT assay, U-87 human glioblastoma, value (SD)
Procedure: (§1) The cytotoxic activity of oleanolic acid (mother compound, 1, Figure 2) and its 14 derivatives (3a–3n, Figure 2) was tested in vitro using the standard MTT method based on viability assay, e.g., [44] against carcinoma cell lines: SKBR-3, SKOV-3, PC-3, U-87, and one normal cell line: HDF.
(§2) Human cancer cells: SKBR-3 and SKOV-3 were cultured in McCoy’s Modified Medium; PC-3 was cultured in an F-12K medium; U-87 was cultured in EMEM medium; HDF was cultured in Fibroblast Basal Medium. Each medium was supplemented with 10% fetal bovine serum, 1% L- glutamine, and 1% penicillin/streptomycin solution. The cell lines were kept in an incubator at 37 °C. All the cell lines and mediums were obtained from the American Type Culture Collection (ATCC) supplied by LGC-Standards (Lomianki, Poland).
(§3) The MTT assay was conducted as described earlier, e.g., [44]. In short, this method is based on the reaction between mitochondria enzymes (dehydrogenases) of tested cell lines and 3-(4,5-dimethylthiazol-2-yl)-2,5-diphenyltetrazolium bromide (MTT). The final product of this reaction gives violet formazan crystals. The number of live cells is proportional to the amount of formazan and is represented by the violet dye reagent. The details of the experiments are given in [44].

[1] = system: SKBR-3, SKOV-3, PC-3, and U-87 cancer cell lines; test: MTT assay, four cancer cell lines taken together; assay type: cell-based, human; details: for IC50: MTT, across SKBR-3, SKOV-3, PC-3, U-87; for Selectivity Index value: IC50 HDF / IC50 cancer cell line, across the four cancer lines; for level of cytotoxic activity relative to oleanolic acid (1): four cancer cell lines, times more active than oleanolic acid (1)
Procedure: as §1, §2, §3

SKBR-3 = test: MTT assay, SKBR-3; assay type: cell-based, human; details: for IC50: SKBR-3 human breast adenocarcinoma, value (SD); for SKBR-3 SI: Selectivity Index = IC50 HDF / IC50 SKBR-3
Procedure: as §1, §2, §3

PC-3 = test: MTT assay, PC-3; assay type: cell-based, human; details: for IC50: value (SD); for B SI: Selectivity Index = IC50 HDF / IC50 of PC-3
Procedure: as §1, §2, §3

HDF = test: MTT assay, HDF normal cell line; assay type: cell-based; details: Homo sapiens, value (SD)
Procedure: as §1, §2, §3

SKOV-3 = test: MTT assay, SKOV-3; assay type: cell-based, human; details: for IC50: SKOV-3 human ovarian cystadenocarcinoma, value (SD); for SKOV-3 SI: Selectivity Index = IC50 HDF / IC50 SKOV-3
Procedure: as §1, §2, §3

DPPH antioxidant assay = details: Figure 3
Text: The results of the antioxidant activity of oleanolic acid (1) and Acetylated Oleanolic Acid Dimers (AcOADs) 3a–3n evaluated with CUPRAC and DPPH assays are given in Figure 3. The results are presented as % inhibition of the copper(II) ions and Trolox equivalent (blue bars) calculated from the standard curve, presented in the Supplementary Materials (Supplementary Materials S02, Figure S1) and as % inhibition of the DPPH radical and Trolox equivalent (pink bars), calculated from the standard curve presented in the Supplementary Materials (Supplementary Materials S02, Figure S2).
The CUPRAC reagent (7.5 mM ethanolic 96% neocuproine solution, 10 mM CuCl2 × H2O solution, and an ammonium acetate buffer of pH 7.0) and DPPH reagent (2,2-diphenyl-1-picrylhydrazyl 0.2 mM solution) were applied.
The DPPH assay relies on the ability of an antioxidant to donate a hydrogen atom or an electron to the stable DPPH radical, resulting in its reduction and subsequent color change. In contrast, the CUPRAC method measures the reducing power of a sample by quantifying its ability to convert the Cu-neocuproine reagent complex into the Cu(I) form. The results are presented as % inhibition of the copper(II) ions and Trolox equivalent (blue bars) calculated from the standard curve (Supplementary Materails S02, Figure S1) and as % inhibition of the DPPH radical and Trolox equivalent (pink bars), calculated from the standard curve (Supplementary Materials S02, Figure S2). The details of the experiments are given in [46].

[2] = MTT assay, PC-3 human prostate carcinoma, read-out: B IC50 (SD)

Row | Structure (SMILES) | U-87 SI (U-87) | IC50 (U-87) [µM] | IC50 ([1]; Homo sapiens) [µM] | Selectivity Index value [1] | IC50 (SKBR-3; SK-BR-3, MTT assay) [µM] | SKBR-3 SI (SKBR-3) | IC50 (PC-3; [2]) [µM] | B SI (PC-3) | IC50 (HDF) [µM] | IC50 (SKOV-3; SK-OV-3, MTT assay) [µM] | SKOV-3 SI (SKOV-3) | DPPH activity (in words) (DPPH antioxidant assay) | IC50 [1] [µM] | IC50 (U-87; Homo sapiens) [µM] | level of cytotoxic activity relative to oleanolic acid (1) [1] | IC50 (SKBR-3; Homo sapiens, SK-BR-3, MTT assay) [µM] | IC50 (PC-3; Homo sapiens, PC-3, read-out: B IC50 (SD), MTT assay, PC-3 human prostate carcinoma) [µM] | IC50 (HDF; HDF) [µM] | IC50 (SKOV-3; Homo sapiens, SK-OV-3, MTT assay) [µM]
1 | CC(=O)OC1CCC2(C)C(CCC3(C)C2CC=C2C4CC(C)(C)CCC4(C(=O)OCCCCOC(=O)C45CCC(C)(C)CC4C4=CCC6C7(C)CCC(OC(C)=O)C(C)(C)C7CCC6(C)C4(C)CC5)CCC23C)C1(C)C (centres unmarked) [Compound 3d] | 1.35 | 3.54 | 2.5 to 4.5 | higher than 1.00 | 3.03 | 1.58 | 3.59 | 1.33 | 4.78 | 2.89 | 1.65 | – | – | – | – | – | – | – | –
2 | CC(=O)OC1CCC2(C)C(CCC3(C)C2CC=C2C4CC(C)(C)CCC4(C(=O)OCCCCCCCCOC(=O)C45CCC(C)(C)CC4C4=CCC6C7(C)CCC(OC(C)=O)C(C)(C)C7CCC6(C)C4(C)CC5)CCC23C)C1(C)C (centres unmarked) [Compound 3j] | 2.32 | 2.76 | 2.5 to 4.5 | – | 2.77 | 2.31 | 2.72 | 2.32 | 6.4 | 2.81 | 2.28 | higher antioxidant activity than OA | – | – | – | – | – | – | –
3 | CC(=O)OC1CCC2(C)C(CCC3(C)C2CC=C2C4CC(C)(C)CCC4(C(=O)OCCCCCOC(=O)C45CCC(C)(C)CC4C4=CCC6C7(C)CCC(OC(C)=O)C(C)(C)C7CCC6(C)C4(C)CC5)CCC23C)C1(C)C (centres unmarked) [Compound 3g] | 1.38 | 4.09 | 2.5 to 4.5 | higher than 1.00 | 4.65 | 1.22 | 4.1 | 1.38 | 5.66 | 4.23 | 1.34 | – | – | – | – | – | – | – | –
4 | CC(=O)OC1CCC2(C)C(CCC3(C)C2CC=C2C4CC(C)(C)CCC4(C(=O)OCCCCCCCOC(=O)C45CCC(C)(C)CC4C4=CCC6C7(C)CCC(OC(C)=O)C(C)(C)C7CCC6(C)C4(C)CC5)CCC23C)C1(C)C (centres unmarked) [Compound 3i] | 0.93 | 1.98 | ~2 | lower than 1 | 2 | 0.92 | 1.9 | 0.97 | 1.85 | 1.93 | 0.96 | – | ≤ 2 | – | – | – | – | – | –
5 | CC1(C)CCC2(C(=O)OCCCCCCCCCCCCOC(=O)C34CCC(C)(C)CC3C3=CCC5C6(C)CCC(O)C(C)(C)C6CCC5(C)C3(C)CC4)CCC3(C)C(=CCC4C5(C)CCC(O)C(C)(C)C5CCC43C)C2C1 (centres unmarked) [Compound 2n, reference compound] | – | – | – | higher than 1.00 | – | – | – | – | – | – | – | – | – | – | – | – | – | – | –
6 | CC(=O)OC1CCC2(C)C(CCC3(C)C2CC=C2C4CC(C)(C)CCC4(C(=O)OCC=CCOC(=O)C45CCC(C)(C)CC4C4=CCC6C7(C)CCC(OC(C)=O)C(C)(C)C7CCC6(C)C4(C)CC5)CCC23C)C1(C)C (centres unmarked) [Compound 3f] | 0.59 | – | 4.65 to 7.06 | about 0.5 | – | 0.57 | – | 0.60 | – | – | 0.58 | – | – | 6.8 | approximately 3 times | 7.06 | 6.7 | 4.02 | 6.92
7 | CC(=O)OC1CCC2(C)C(CCC3(C)C2CC=C2C4CC(C)(C)CCC4(C(=O)OCCCCCCOC(=O)C45CCC(C)(C)CC4C4=CCC6C7(C)CCC(OC(C)=O)C(C)(C)C7CCC6(C)C4(C)CC5)CCC23C)C1(C)C (centres unmarked) [Compound 3h] | 1.47 | 4.65 | 4.65 to 7.06 | higher than 1.00 | 5.25 | 1.30 | 5.13 | 1.33 | 6.85 | 4.72 | 1.45 | – | – | – | approximately 3 times | – | – | – | –
8 | CC(=O)OC1CCC2(C)C(CCC3(C)C2CC=C2C4CC(C)(C)CCC4(C(=O)OCCCCCCCCCOC(=O)C45CCC(C)(C)CC4C4=CCC6C7(C)CCC(OC(C)=O)C(C)(C)C7CCC6(C)C4(C)CC5)CCC23C)C1(C)C (centres unmarked) [Compound 3k] | 0.92 | 2.1 | ~2 | – | 2.61 | 0.74 | 2.45 | 0.79 | 1.94 | 2.66 | 0.73 | higher antioxidant activity than OA | – | – | – | – | – | – | –
9 | CC(=O)OC1CCC2(C)C(CCC3(C)C2CC=C2C4CC(C)(C)CCC4(C(=O)OCCCCCCCCCCOC(=O)C45CCC(C)(C)CC4C4=CCC6C7(C)CCC(OC(C)=O)C(C)(C)C7CCC6(C)C4(C)CC5)CCC23C)C1(C)C (centres unmarked) [Compound 3l] | 0.66 | 5.47 | 4.65 to 7.06 | – | 5.91 | 0.61 | 5.95 | 0.61 | 3.62 | 5.95 | 0.61 | higher antioxidant activity than OA; also recorded: highest activity; also recorded: extremely high DPPH activity | – | – | approximately 3 times | – | – | – | –
10 | CC(=O)OC1CCC2(C)C(CCC3(C)C2CC=C2C4CC(C)(C)CCC4(C(=O)OCCCOC(=O)C45CCC(C)(C)CC4C4=CCC6C7(C)CCC(OC(C)=O)C(C)(C)C7CCC6(C)C4(C)CC5)CCC23C)C1(C)C (centres unmarked) [Compound 3c] | 0.99 | 3.11 | 2.5 to 4.5 | lower than 1 | 3.82 | 0.80 | 2.94 | 1.04 | 3.07 | 3.15 | 0.97 | – | – | – | – | – | – | – | –
